From patent US7722876B2 (priority 2002, dated 2010)
Read-outs that look alike come from different tables or passages of the source. Where a SMILES comes first, the peptide text is derived from it.

Legend:
C.albicans UP10 cells = details: 6 h
[1] = test system: fluconazole-resistant (AIDS 68) C.albicans; assay type: in vivo, Candida albicans; details: rats, 100 μg fluconazole at 1, 24, 48 h
[2] = test system: LLC-MK2 rhesus monkey kidney cells

Structure (SMILES) | IC50 (C.albicans UP10 cells) [nM] | further results
NC(=O)CC[C@H](NC(=O)[C@@H](N)CCC(N)=O)C(=O)N[C@@H](Cc1c[nH]c2ccccc12)C(=O)N[C@@H](CO)C(=O)N[C@@H](CO)C(=O)N[C@@H](CC(N)=O)C(=O)N1CCC[C@H]1C(=O)N[C@@H](Cc1ccc(O)cc1)C(N)=O [Light chain CDR-3] (H-QQWSSNPY-NH2; N-terminus and C-terminus assumed) | 200 | 
CSCC[C@H](NC(=O)[C@@H](NC(=O)[C@@H](NC(=O)[C@H](CCCCN)NC(=O)[C@H](C)N)C(C)C)[C@@H](C)O)C(=O)N[C@H](C(=O)N[C@@H](CS)C(=O)N[C@@H](CO)C(=O)N[C@@H](C)C(N)=O)[C@@H](C)O [SEQ ID 14] (H-AKVTMTCSA-NH2; N-terminus and C-terminus assumed) | 50000 | 
CC(C)[C@H](NC(=O)[C@H](CCCCN)NC(=O)[C@H](C)N)C(=O)N[C@H](C(N)=O)[C@@H](C)O [SEQ ID 19] (H-AKVT-NH2; N-terminus and C-terminus assumed) | 710000 | 
CC(C)[C@H](NC(=O)CNC(=O)[C@H](Cc1ccc(O)cc1)NC(=O)CN)C(=O)N[C@@H](CC(N)=O)C(N)=O [Heavy chain CDR-1] (H-GYGVN-NH2; N-terminus and C-terminus assumed) | 267 | 
CC(C)C[C@H](NC(=O)[C@H](CC(N)=O)NC(=O)[C@H](CO)NC(=O)[C@@H](NC(=O)[C@@H](N)CC(C)C)[C@@H](C)O)C(=O)N[C@@H](C)C(=O)N[C@@H](CO)C(N)=O [Light chain CDR-2] (H-LTSNLAS-NH2; N-terminus and C-terminus assumed) | 234 | 
CSCC[C@H](NC(=O)[C@@H](NC(=O)[C@@H](NC(=O)[C@H](CCCCN)NC(=O)[C@H](C)N)C(C)C)[C@@H](C)O)C(=O)N[C@H](C(=O)N[C@@H](CS)C(=O)N[C@@H](CO)C(N)=O)[C@@H](C)O [SEQ ID 15] (H-AKVTMTCS-NH2; N-terminus and C-terminus assumed) | 23000 | 
CSCC[C@H](NC(=O)[C@H](Cc1ccc(O)cc1)NC(=O)[C@H](CO)NC(=O)[C@@H](NC(=O)[C@H](CO)NC(=O)[C@H](CO)NC(=O)[C@H](CO)NC(=O)[C@H](C)NC(=O)[C@@H](N)CO)C(C)C)C(=O)N[C@@H](Cc1ccc(O)cc1)C(N)=O [Light chain CDR-1] (H-SASSSVSYMY-NH2; N-terminus and C-terminus assumed) | 692 | 
CSCC[C@H](NC(=O)[C@@H](NC(=O)[C@@H](NC(=O)[C@H](CCCCN)NC(=O)[C@H](C)N)C(C)C)[C@@H](C)O)C(=O)N[C@H](C(N)=O)[C@@H](C)O [SEQ ID 17] (H-AKVTMT-NH2; N-terminus and C-terminus assumed) | 730000 | 
OC(Cn1cncn1)(Cn1cncn1)c1ccc(F)cc1F [fluconazole] |  | C. albicans vaginal CFU (×10^3) (±SD) ([1]; day 0): >100 ×10^3; C. albicans vaginal CFU (×10^3) (±SD) ([1]; day 7): 64 ± 6 ×10^3; C. albicans vaginal CFU (×10^3) (±SD) ([1]; day 14): 48 ± 3 ×10^3; C. albicans vaginal CFU (×10^3) (±SD) ([1]; day 28): 12 ± 4 ×10^3
CSCC[C@H](NC(=O)[C@@H](NC(=O)[C@@H](NC(=O)[C@H](CCCCN)NC(=O)[C@H](C)N)C(C)C)[C@@H](C)O)C(=O)N[C@H](C(=O)N[C@@H](CS)C(N)=O)[C@@H](C)O [SEQ ID 16] (H-AKVTMTC-NH2; N-terminus and C-terminus assumed) | 600 | 
CC(C)[C@H](NC(=O)[C@H](CCCCN)NC(=O)[C@H](C)N)C(N)=O [SEQ ID 20] (H-Ala-Lys-Val-NH2; N-terminus and C-terminus assumed) | 10000 | 
CC[C@H](C)[C@H](NC(=O)[C@@H](N)CCSC)C(=O)N[C@@H](Cc1c[nH]c2ccccc12)C(=O)NCC(=O)N[C@@H](CC(=O)O)C(=O)NCC(=O)N[C@@H](CO)C(=O)N[C@H](C(=O)N[C@@H](CC(=O)O)C(=O)N[C@@H](Cc1ccc(O)cc1)C(=O)N[C@@H](CC(N)=O)C(=O)N[C@@H](CO)C(=O)N[C@@H](C)C(=O)N[C@@H](CC(C)C)C(N)=O)[C@@H](C)O [Heavy chain CDR-2] (H-MIWGDGSTDYNSAL-NH2; N-terminus and C-terminus assumed) | 117 | 
CSCC[C@H](NC(=O)[C@@H](NC(=O)[C@@H](NC(=O)[C@H](CCCCN)NC(=O)[C@H](C)N)C(C)C)[C@@H](C)O)C(=O)N[C@H](C(=O)N[C@@H](CS)C(=O)N[C@@H](CO)C(=O)N[C@@H](C)C(=O)N[C@@H](CO)C(N)=O)[C@@H](C)O [KM] (H-AKVTMTCSAS-NH2) |  | toxic effects on cell viability [2]: no toxic effects
CSCC[C@H](NC(=O)[C@@H](NC(=O)[C@@H](NC(=O)[C@H](CCCCN)NC(=O)[C@H](C)N)C(C)C)[C@@H](C)O)C(N)=O [SEQ ID 18] (H-AKVTM-NH2; N-terminus and C-terminus assumed) | 25000 | 
CSCC[C@H](NC(=O)[C@H](C)NC(=O)[C@H](Cc1ccc(O)cc1)NC(=O)[C@@H](N)CC(C)C)C(N)=O [Heavy chain CDR-3] (H-LYAM-NH2; N-terminus and C-terminus assumed) | 109 | 
